Assay results published in PubChem BioAssay AID2060484 (Molecular Pharmacology Branch, DTP, NCI, 2025).

System: SUM149PT spheroids with HUVEC/MSC, viability
Test: Anticancer human tumor SUM149PT cell line growth inhibition [GQUAD];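 further: spheroids exposed to drugs for seven days before readout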;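 on viability, T/C: percent viability relative to DMSO vehicle control taken as 100%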
Conditions: for IC50: curve of first compound; for viability, T/C: stronger effect = lower value; active means viability on the fitted dose curve at most 10% of control; inactive means the rest
In short: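 Tumor cells were grown as complex spheroids with HUVEC endothelial cells and mesenchymal stem cells as stroma. G-quadruplex stabilizers were combined with targeted agents over half-log dilutions from near the clinical Cmax, or from 10 microM.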

CCc1c2c(nc3ccc(O)cc13)-c1cc3c(c(=O)n1C2)COC(=O)[C@]3(O)CC + CN(C)c1ccc(Nc2c3ccc(NC(=O)CCN4CCCC4)cc3nc3cc(NC(=O)CCN4CCCC4)ccc23)cc1
14.8 nM: IC50 (second compound 0.1 µM)
inactive: viability, T/C (second compound 0.0316 µM, first compound 0.000999 µM) 80% | viability, T/C (second compound 0.0316 µM, first compound 0.00316 µM) 44% | viability, T/C (second compound 0.0316 µM, first compound 0.00999 µM) 54.6% | viability, T/C (second compound 0.0316 µM, first compound 0.0316 µM) 45.9% | viability, T/C (second compound 0.0316 µM, first compound 0.0999 µM) 38.9% | viability, T/C (second compound 0.0316 µM, first compound 0.316 µM) 20.7% | viability, T/C (second compound 0.1 µM, first compound 0.000999 µM) 70.2% | viability, T/C (second compound 0.1 µM, first compound 0.00316 µM) 45.6% | viability, T/C (second compound 0.1 µM, first compound 0.00999 µM) 52.8% | viability, T/C (second compound 0.1 µM, first compound 0.0316 µM) 48.1% | viability, T/C (second compound 0.1 µM, first compound 0.0999 µM) 41.6% | viability, T/C (second compound 0.1 µM, first compound 0.316 µM) 23.5% | viability, T/C (second compound 0.316 µM, first compound 0.000999 µM) 64.1% | viability, T/C (second compound 0.316 µM, first compound 0.00316 µM) 45.7% | viability, T/C (second compound 0.316 µM, first compound 0.00999 µM) 45.3% | viability, T/C (second compound 0.316 µM, first compound 0.0316 µM) 47.5% | viability, T/C (second compound 0.316 µM, first compound 0.0999 µM) 37.7% | viability, T/C (second compound 0.316 µM, first compound 0.316 µM) 26% | viability, T/C (second compound 1 µM, first compound 0.000999 µM) 63.8% | viability, T/C (second compound 1 µM, first compound 0.00316 µM) 42.2% | viability, T/C (second compound 1 µM, first compound 0.00999 µM) 47.2% | viability, T/C (second compound 1 µM, first compound 0.0316 µM) 48.8% | viability, T/C (second compound 1 µM, first compound 0.0999 µM) 35.5% | viability, T/C (second compound 1 µM, first compound 0.316 µM) 23.5% | viability, T/C (second compound 3.16 µM, first compound 0.000999 µM) 64.1% | viability, T/C (second compound 3.16 µM, first compound 0.00316 µM) 42.1% | viability, T/C (second compound 3.16 µM, first compound 0.00999 µM) 47.2% | viability, T/C (second compound 3.16 µM, first compound 0.0316 µM) 46.1% | viability, T/C (second compound 3.16 µM, first compound 0.0999 µM) 35.6% | viability, T/C (second compound 3.16 µM, first compound 0.316 µM) 23.5% | viability, T/C (second compound 10 µM, first compound 0.000999 µM) 67.2% | viability, T/C (second compound 10 µM, first compound 0.00316 µM) 39.2% | viability, T/C (second compound 10 µM, first compound 0.00999 µM) 49.1% | viability, T/C (second compound 10 µM, first compound 0.0316 µM) 46.8% | viability, T/C (second compound 10 µM, first compound 0.0999 µM) 37.2% | viability, T/C (second compound 10 µM, first compound 0.316 µM) 22.4%
6.81 nM: IC50 (second compound 10 µM)
6.73 nM: IC50 (second compound 1 µM)
5.8 nM: IC50 (second compound 3.16 µM)
11.9 nM: IC50 (second compound 0.0316 µM)
6.28 nM: IC50 (second compound 0.316 µM)
